How the values were obtained:
uPAR = uPAR (Homo sapiens, UniProt Q03405); settings: individual N-substituted glycine peptoids
Procedure: Human urokinase plasminogen activator receptor (UPAR) was expressed in a soluble, truncated form as described by Rosenberg et al., W094/28145, incorporated herein by reference. […] The ligand uPA1-48 was prepared as described in Rosenberg, supra.

sUPAR = sUPAR (Homo sapiens, UniProt Q03405); settings: mixture 1 μM per compound, sUPAR 1 μM
Sequence of sUPAR (Q03405 23-305): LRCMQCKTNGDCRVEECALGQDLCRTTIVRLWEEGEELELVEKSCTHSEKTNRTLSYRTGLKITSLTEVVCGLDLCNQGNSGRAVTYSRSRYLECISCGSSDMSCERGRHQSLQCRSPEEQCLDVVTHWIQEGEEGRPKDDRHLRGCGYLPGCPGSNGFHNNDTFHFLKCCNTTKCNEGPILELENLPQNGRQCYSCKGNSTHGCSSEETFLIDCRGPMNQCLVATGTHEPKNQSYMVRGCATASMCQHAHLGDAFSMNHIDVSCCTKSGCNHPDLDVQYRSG
Procedure: The mixture (1 μM per compound) was contacted with sUPAR (1 μM) in the presence and absence of uPA1-48(2 μM), incubated for 30 minutes, and applied to a SEC HPLC column (Pharmacia HSIO/IO). The compound-target complex eluting in the excluded volume of the column was collected and analyzed on an ES MS (PE-Sciex).

Sequence of uPAR (Q03405 23-305): as above

Row | Substance | activity (affinity for uPAR) (uPAR) | selection as compound-target complex, detected by ES MS (sUPAR; absence of uPA1-48, 30 minutes, SEC HPLC excluded volume) | specificity of selection, by competition with ligand uPA1-48 (sUPAR; presence of uPA1-48 (2 μM))
1 | 1,4-benzodioxane | insignificant activity |  | 
2 | diphenyl |  | selected | specificity was confirmed by competition

From patent US5891742A, “Affinity selection of ligands by mass spectroscopy” (Chiron Corporation, priority 1995, dated 1999)
